Data set [1] can be described thus: Stability of esters to concentrated aqueous ammonium hydroxide. It is filed as physicochemical. The note with it: stirred 2 days (comparable conditions). From the text: The acrylate and methacrylate esters from Examples D1-D11 were fully recoverable with essentially no degradation after being stirred with concentrated aqueous ammonium hydroxide for a period of 2 days.

The test system of data set [2] is rats. The data set is described as follows: Acute LD50, one-time feeding study of rats. It is filed as in vivo, rat. How it is done: Acute LD50 measurements for a one-time feeding study of rats were determined over a 21 day period for both the a-branched perfluorocarboxylate salt, C7 F15 CF(CF3)COO^- NH4^+, and its straight chain isomer, CF3 (CF2)8 COO^- NH4^+.

The conditions of data set [3]: literature; cited from earlier work.
Data set [4] in a line: Thermal degradation in aqueous media. In kind it is physicochemical.
Protocol: The thermal degradation of an aqueous a-branched perfluoroalkylcarbonyl fluoride and the characterization of the products produced from the degradation were carried out using the following procedure. 8 g of C7 F15 CF(CF3)COF (made as in Example A4) was dispersed in deionized water and was refluxed for 2 hours. 5.7 g of volatile degradation products were then collected by azeotropic distillation using a Dean-Stark apparatus.
The thermal degradation of C7 F15 CF(CF3)COF (from Example A4) dispersed in water was also carried out by heating the aqueous mixture for several hours at approximately 80° C.
Data set [5] is described as follows: Emulsion polymerization of hexafluoropropylene and vinylidene fluoride with surfactant as emulsifier. The note with it: 3500 ppm emulsifier, 78° C. From the text: The following procedure was used to evaluate C7 F15 CF(CF3)COO^- NH4^+ (from Ex. M1) as an emulsifier to copolymerize hexafluoropropylene (HFP) and vinylidene fluoride.
A 1 gallon, vertically agitated stainless steel reactor with pressure and temperature controls was evacuated and twice purged with nitrogen. Using an isolated vacuum, a solution comprised of 2 g of ammonium persulfate (initiator) and 6 g of dipotassium phosphate dissolved in 2800 g of deionized water was introduced into the reactor. The remaining vacuum on the reactor was vented with nitrogen, and the solution was degassed twice under agitation using alternate vacuum and nitrogen purges. […]
The resulting latex polymer was drained from the reactor, and percent solids of the latex was determined to be 25% by weight as measured by drying 10 g of latex in a forced air oven for 16 hours at 105° C.
The reactor body was separated from the reactor head, and a visual inspection of the reactor was made to determine the amount of coagulated polymer in the reactor (the amount should be minimal in a good polymerization reaction). A qualitative rating was assessed, ranging from "none" to "little" to "some." […]
Particle size in the latex was determined using […] on a Coulter sub-micron particle size analyzer. […]

The subject of data set [6] is rats. The data set is described as follows: Monitoring of volatile degradation products exhaled by a dosed rat (uptake desiccator jar chamber). It is filed as in vivo. As to the method:
Additional biological testing of C7F15 CF(CF3)COO^- NH4^+ in rats was conducted using the following test apparatus. An uptake desiccator jar chamber was designed with top and bottom portions, the top portion equipped with an inlet port, an outlet port, oxygen monitor and pressure gage. An oxygen gas tank supplied oxygen into the inlet port, and the oxygen level in the chamber was maintained at a normal ambient level as measured by the oxygen monitor and pressure gage. The outlet port was connected in series with a carbon dioxide scrubber and particulate filter, which in turn was connected to a loop containing a stainless steel bellows pump operating at about 2 L/min. Most of the gas in the loop was recycled into the inlet port, but about 100 mL/min was directed through a secondary loop to a gas chromatograph equipped with a 0.5 mL gas sampling loop.
A rat dosed at 500 mg/kg was placed in the bottom portion of the chamber, the top portion was attached, and the assembled chamber was placed in an ice-filled pan to allow for the condensation of water. The oxygen flow was started, and the exhaust gases were monitored for the presence of CF3 CF=CF(C6 F13) and C7 F15 CFHCF3, aqueous degradation products of C7 F15 CF(CF3)COOH, using known standards of this olefin and hydride in the gas chromatograph. […] After 24 minutes, one slight chromatographic peak was noted, corresponding to the monohydride. After 92 minutes, the peak became noticeably larger and a second peak formed, corresponding to the olefin.

Data set [7] in a line: Surface tension and critical micelle concentration (CMC) of aqueous surfactant solutions. It is filed as physicochemical. The note with it: Table 5; deionized water, at CMC.
Text: Critical Micelle Concentration (CMC): The critical micelle concentration is defined as the concentration at which further surface tension is no longer lowered with increasing levels of surfactant. […] Surface tension is then plotted vs. log concentration and the data points are connected. The resulting curve has a nearly horizontal flat portion at concentrations above the CMC and has a negative steep slope at concentrations below the CMC. The CMC is defined as the lowest surfactant concentration in the horizontal flat portion of the curve.
(§1) Then the critical micelle concentration (CMC) was determined for each surfactant.
as §1

Data set [8] can be described thus: Thermogravimetric analysis of neat perfluorocarboxylate salts. It is filed as physicochemical. The note with it: neat salt; for onset temperature of decomposition / temperature for 50% loss / temperature for 90% loss: 10° C./min, nitrogen. From the text: Thermal degradation measurements were made on a series of neat perfluorocarboxylate salts, including several ax-branched open chain structures (Examples N2-N9), a primarily linear open chain structure (Example N10--Fluorad™ FC-143 Fluorochemical Surfactant, commercially available from 3M Company, St. Paul, Minn.), and a closed chain (i.e., cyclic) structure (Example N11--made by the electrochemical fluorination of benzoic acid and hydrolysis in the presence of KOH, as described in U.S. Pat. No. 2,567,011 (Diesslin et al.)).
The perfluorocarboxylate salts were tested using a Perkin-Elmer TGA 7 thermogravimetric analysis apparatus and a salt sample size of approximately 5 mg, a heating rate of 10° C./min, and a nitrogen gas flow rate of 40-45 mL/min. Using the TGA 7 software, the following temperatures were recorded: (1) the onset temperature of decomposition, (2) the temperature at which 50% of the sample weight was lost, and (3) the temperature at which 90% of the sample weight was lost.

Data set [9] in a line: Storage of 5% aqueous solution at room temperature. In kind it is physicochemical. As to the method:
The α-branched open chain ammonium salt compounds from Examples N3-N6 were dissolved in deionized water at a concentration of 5% by weight (0.5 g ammonium salt in 10 mL water) and were stored at room temperature.

Each structure is given as a SMILES string. “Also recorded” adds a separate entry of the source.

Take `C=CC(=O)OCCOC(=O)C(F)(F)C(F)(F)C(F)(F)C(F)(F)C(F)(F)C(F)(F)C(F)(F)F` [C7 F15 COOCH2 CH2 OCOCH=CH2]: the “hydrolytic stability in concentrated aqueous ammonium hydroxide” value in [1] was “readily hydrolyzed”.
In the case of `O=C(O)C(F)(F)C(F)(F)C(F)(F)C(F)(F)C(F)(F)C(F)(F)C(F)(F)C(F)(F)C(F)(F)F` [C9 F19 COO^- NH4^+, CF3 (CF2)8 COO^- NH4^+, reference compound], the “toxicity relative to the α-branched isomer” value in the data set with rats [2] (LD50 comparison) is given as “ca. 10 times”. Also, in the data set with rats [2] (one-time feeding, rats), the “acute toxicity (in words)” value was “moderately toxic” and the wasting syndrome result is recorded as “Wasting syndrome was observed”. For the same compound, the “toxicity (in words)” value in data set [3] is “moderately toxic”.
With `O=C(F)C(F)(C(F)(F)F)C(F)(F)C(F)(F)C(F)(F)C(F)(F)C(F)(F)C(F)(F)C(F)(F)F` (stereo not drawn) [Example A1, C7 F15 CF(CF3)COF], the “degradation products (in words)” value in [4] (aqueous mixture heated several hours at approximately 80° C.) was “The same volatile products were formed”. Moreover, the “olefin in degradation products” value in data set [4] (dispersed in deionized water, refluxed 2 hours, C6 F13 CF=CFCF3) worked out at 15%. The “monohydride in degradation products” value in data set [4] (dispersed in deionized water, refluxed 2 hours, C7 F15 CFHCF3) was determined as 85%. The “volatile degradation products collected” value in data set [4] (from 8 g, refluxed 2 hours in deionized water) came out at 5.7 g.
Take `O=C(O)C(F)(C(F)(F)F)C(F)(F)C(F)(F)C(F)(F)C(F)(F)C(F)(F)C(F)(F)C(F)(F)F` (stereo not drawn) [Example M1, C7 F15 CF(CF3)COOH]: in data set [4] (aqueous solution, carried out in a similar way), the “degradation products (in words)” value was “the same monohydride and olefin”.
In the case of `O=C(O)C(F)(C(F)(F)F)C(F)(F)C(F)(F)C(F)(F)C(F)(F)C(F)(F)C(F)(F)C(F)(F)F` (stereo not drawn) [Example M14, C7 F15 CF(CF3)COO^- H4 N^+], the “Latex Stability” value in data set [5] is 0. Also, in the data set with rats [6] (rat dosed at 500 mg/kg), the “post-exposure toxicity (death) or wasting syndrome” value is “no evidence of toxicity (death) or evidence of wasting syndrome”, the “time at which monohydride peak was noted in exhaust gases” value amounted to 24 min and the “time at which second peak (olefin) formed in exhaust gases” value was 92 min. The “monohydride and olefin peaks in exhaust gases after 217 minutes” value with rats [6] (rat dosed at 500 mg/kg, 217 minutes) is “both peaks became significantly larger”. For the same compound, the “olefin or hydride in exhaust gases, initially” value in the data set with rats [6] (rat dosed at 500 mg/kg, initially) is listed as “no olefin or hydride were detected”. The metabolism and elimination result in the data set with rats [6] (rat, in words) was “metabolized by the rat to volatile metabolites which were eliminated from the rat via transpiration”. Also, the “Surf. Tens. (surface tension at the CMC)” value in data set [7] is 16.5 dynes/cm. In data set [8], the “onset temperature of decomposition” value came out at 151 °C, the “temperature for 50% loss” value amounted to 163 °C and the “temperature for 90% loss” value stood at 174 °C. Besides, in the data set with rats [2] (one-time feeding, rats), the “time after which rats began regaining weight” value is 3 days, the “time of deaths from toxic doses” value fell in the range of 2 to 3 days and the wasting syndrome result is given as “No wasting syndrome was noted”. Besides, in the data set on rats [2] (one-time feeding, rats, listed as C7 F15 CF(CF3)COO^- NH4^+), the “acute toxicity (in words)” value is “relatively low toxicity; also recorded: only slightly toxic”.
As for `O=C(O)C(F)(C(F)(F)F)C(F)(F)C(F)(F)C(F)(F)C(F)(F)C(F)(F)C(F)(F)C(F)(F)C(F)(F)F` (stereo not drawn) [Example M17, C8 F17 CF(CF3)COO^- H4 N^+], in data set [7], the “Surf. Tens. (surface tension at the CMC)” value is listed as 14.7 dynes/cm. In data set [8], the “onset temperature of decomposition” value was 142 °C, the “temperature for 50% loss” value was 162 °C and the “temperature for 90% loss” value stood at 184 °C.
The corresponding values for `O=C(O)C(F)(C(F)(F)F)C(F)(F)C(F)(F)C(F)(F)C(F)(F)C(F)(F)C(F)(F)C(F)(F)C(F)(F)C(F)(F)C(F)(F)F` (stereo not drawn) [Example M18, C10 F21 CF(CF3)COO^- H4 N^+] are 14.8 dynes/cm, 164 °C, 181 °C and 188 °C.
Consider `O=C(O)C(F)(C(F)(F)F)C(F)(F)C(F)(F)C(F)(F)C(F)(F)C(F)(F)F` (stereo not drawn) [Example M21, C5 F11 CF(CF3)COO^- K^+], for which, in [7], the “Surf. Tens. (surface tension at the CMC)” value is 22.5 dynes/cm. For the same compound, in data set [8] (listed as N9), the “onset temperature of decomposition” value turned out to be 167 °C and the “temperature for 50% loss” value worked out at 178 °C. For the same compound, the “temperature for 90% loss (stopped at 85% weight loss)” value in [8] (stopped at 85% weight loss as remaining salt, KF, is not volatile) was 188 °C.
Take `O=C(O)C(F)(F)C(F)(F)C(F)(F)C(F)(F)C(F)(F)C(F)(F)C(F)(F)F` [FC-143, C7 F15 COO^- H4 N^+]: in [7], the “Surf. Tens. (surface tension at the CMC)” value came to 21.5 dynes/cm. In addition, in data set [8], the “onset temperature of decomposition” value stood at 173 °C, the “temperature for 50% loss” value amounted to 188 °C and the “temperature for 90% loss” value worked out at 202 °C. In data set [9], the “degradation over 1 year (in words)” value is listed as “no signs of degradation”.

The values are drawn from patent US6015838A, “Aqueous film-forming foam compositions” (3M Innovative Properties Company, priority 1996, dated 2000).
